≈ marks a conversion by molar mass, not a printed value. Entries after “also recorded” stand apart in the source; their conditions may differ. Where two headings read alike, the source gives them in different places.
Tests used:
[1] = tested on: C. difficile PCR ribotype 027; assay: In vitro gut model of CDI (three-stage chemostat): C. difficile viable counts, spore counts, cytotoxin titre; type: cell-based, Clostridium difficile; conditions: both tapered dosing regimens (Model C and D)
Method: Two 3-stage chemostat gut models were inoculated with pooled faeces (n=5). […] […] 5 days post treatment in the short course model, a further 5 days fidaxomicin pulse was given. CD total viable counts (TVC), spore counts (SP), toxin titres (CYT), and gut bacteria were measured throughout. Data were also compared with results for FDX given for 7 days (model 7).
(§1) Two tests in a validated three-stage compound continuous culture system (Freeman J, O'Neill F J, Wilcox M H. The effects of cefotaxime and desacetylcefotaxime upon Clostridium difficile proliferation and toxin production in a triple-stage chemostat model of the human gut. J Antimicrob Chemother 2003; 52: 96-102; Baines S D, Freeman J, Wilcox M H. Effects of piperacillin/tazobactam on Clostridium difficile growth and toxin production in a human gut model. J Antimicrob Chemother 2005; 55: 974-82) were run in parallel. Models were inoculated with pooled faecal slurry (10% in anaerobic distilled water) from healthy volunteers (n=5, age >60 yrs).
The continuous culture system consisted of three vessels, V1, V2, and V3, with respective operating volumes of 0.22, 0.32, and 0.32 L (FIG. 1). Temperature (37° C.) and pH were automatically controlled to reflect the proximal-distal colon. Culture pH in the three vessels was 5.5, 6.2, and 6.8, respectively. Each fermentor was magnetically stirred and maintained under an atmosphere of CO2. The growth medium was continuously sparged with O2-free N2 and fed by peristaltic pump to V1. V1 sequentially supplied V2 and V3 via a series of weirs. The culture medium consisted of the following constituents (g liter-1) in distilled water: starch (BDH Ltd.), 5.0; pectin (citrus), 2.0; guar gum, 1.0; mucin (porcine gastric type III), 4.0; xylan (oatspelt), 2.0; arabinogalactan (larch wood), 2.0; inulin, 1.0; casein (BDH Ltd.), 3.0; peptone water, 5.0; tryptone, 5.0; bile salts No. 3, 0.4; yeast extract, 4.5; FeSO4 z 7H2O, 0.005; NaCl, 4.5; KCl, 4.5; KH2PO4, 0.5; MgSO4 z 7H2O, 1.25; CaCl2 z 6H2O, 0.15; NaHCO3, 1.5; cysteine, 0.8; hemin, 0.05; Tween 80, 1.0 The system was initially operated at a retention time (R) of 27.1 h (experiment 1), followed by an increase to R=66.7 h (experiment 2). Retention time was calculated as the reciprocal of dilution rate. System retention constitutes the sum of individual R values in each fermentor. Minimum doubling times of bacteria were calculated as 0.693/D, where D is the dilution rate (h−1) for each culture vessel. Each fermentor was inoculated with 100 ml of a fresh 10% (w/v) fecal slurry from a healthy, nonmethane producing donor. […] Steady-state conditions were assessed by monitoring short-chain fatty acid (SCFA) formation. […]

Bifidobacteria [2] = assay: In vitro gut model: gut microflora by selective culture, Bifidobacteria; type: cell-based
Method: Two 3-stage chemostat gut models were inoculated with pooled faeces (n=5). […] Models were then treated with fidaxomicin (200 mg/L bd) for 20 or 5 d to achieve in vivo gut levels. 5 days post treatment in the short course model, a further 5 days fidaxomicin pulse was given. CD total viable counts (TVC), spore counts (SP), toxin titres (CYT), and gut bacteria were measured throughout. Data were also compared with results for FDX given for 7 days (model 7).
Two tests in a validated three-stage compound continuous culture system (Freeman J, O'Neill F J, Wilcox M H. The effects of cefotaxime and desacetylcefotaxime upon Clostridium difficile proliferation and toxin production in a triple-stage chemostat model of the human gut. J Antimicrob Chemother 2003; 52: 96-102; Baines S D, Freeman J, Wilcox M H. Effects of piperacillin/tazobactam on Clostridium difficile growth and toxin production in a human gut model. J Antimicrob Chemother 2005; 55: 974-82) were run in parallel. […]
(§2) The continuous culture system consisted of three vessels, V1, V2, and V3, with respective operating volumes of 0.22, 0.32, and 0.32 L (FIG. 1). […] Retention time was calculated as the reciprocal of dilution rate. […] Minimum doubling times of bacteria were calculated as 0.693/D, where D is the dilution rate (h−1) for each culture vessel. […] Steady-state conditions were assessed by monitoring short-chain fatty acid (SCFA) formation. […]

enterococci = assay: In vitro gut model: gut microflora by selective culture, enterococci; type: cell-based; conditions: both dosing regimens (Model C and D)
Text: as §1
as §2, with “1). Temperature (37° C.) and pH were automatically controlled to reflect the proximal-distal colon. Culture pH in the three vessels was 5.5, 6.2, and 6.8, respectively. Each fermentor was magnetically stirred and maintained under an atmosphere of CO2.” for “1).”

[3] = Antimicrobial concentration (bioassay) in the in vitro gut model
Method: The continuous culture system consisted of three vessels, V1, V2, and V3, with respective operating volumes of 0.22, 0.32, and 0.32 L (FIG. 1). Temperature (37° C.) and pH were automatically controlled to reflect the proximal-distal colon. Culture pH in the three vessels was 5.5, 6.2, and 6.8, respectively. Each fermentor was magnetically stirred and maintained under an atmosphere of CO2. The growth medium was continuously sparged with O2-free N2 and fed by peristaltic pump to V1. V1 sequentially supplied V2 and V3 via a series of weirs. […] Retention time was calculated as the reciprocal of dilution rate. […] Minimum doubling times of bacteria were calculated as 0.693/D, where D is the dilution rate (h−1) for each culture vessel. […] Steady-state conditions were assessed by monitoring short-chain fatty acid (SCFA) formation. […]

C. difficile = assay: MIC against C. difficile; type: cell-based, Clostridium difficile; conditions: Clostridioides difficile
CDI [4] = assay: Expected clinical outcome of the new dosing regimens (proposed clinical study); type: in vivo, patients; conditions: expected benefit of the dosing regimens of the invention
[5] = tested on: C. difficile PCR ribotype 027; conditions: cited from earlier work
Bifidobacteria [6] = conditions: both dosing regimens (Model A and Model B); cited from earlier work
[7] = some previous fidaxomicin dosing regimens; cited from earlier work
Clostridium species = conditions: in vitro; cited from earlier work
[8] = low solubility, low permeability; cited from earlier work
[9] = oral administration; cited from earlier work
CDI [10] = conditions: two Phase III trials; cited from earlier work
[11] = tested on: C. difficile infections (CDI); conditions: cited from earlier work
[12] = Model A: fidaxomicin 200 mg/L bd for 20 d

## CCc1c(Cl)c(O)c(Cl)c(O)c1C(=O)O[C@H]1[C@H](O)[C@H](OC)[C@H](OC/C2=C\C=C\C[C@H](O)/C(C)=C/[C@H](CC)[C@@H](O[C@@H]3OC(C)(C)[C@@H](OC(=O)C(C)C)[C@H](O)[C@@H]3O)/C(C)=C/C(C)=C/C[C@@H]([C@@H](C)O)OC2=O)O[C@@H]1C [fidaxomicin, 3-[[[6-deoxy-4-O-(3,5-dichloro-2-ethyl-4,6-dihydroxybenzoyl)-2-O-methyl-β-D-mannopyranosyl]oxy]methyl]-12(R)-[[6-deoxy-5-C-methyl-4-O-(2-methyl-1-oxopropyl)-β-D-lyxo-hexopyranosyl]oxy]-11(S)-ethyl-8(S)-hydroxy-18(S)-(1(R)-hydroxyethyl)-9,13,15-trimethyloxacyclooctadeca-3,5,9,13,15-pentaene-2-one]
[1]
  Reduction of C. difficile viable counts to below the level of detection: ~6 log10 cfu/mL
  Reduction of spore counts to below the level of detection: ~4 log10 cfu/mL
  Reduction of toxin titres to below the level of detection: 3 RU
  Time to reduce C. difficile viable counts, spore counts and toxin titres to below the level of detection: < 3 days
Bifidobacteria [2]; both dosing regimens (Model C and D)
  Declines in Bifidobacteria to limit of detection: 6-8 log10 cfu/mL
Bifidobacteria [2]; both models (C and D), by the end of the experiment
  Recovery of Bifidobacteria populations: recovered to near pre-installation counts; also recorded: recovered to close to pre-fidaxomicin levels
enterococci
  Declines in enterococci: 2-5 log10 cfu/mL
[3]; dosing regimens i and ii
  Persistence of fidaxomicin at supra MIC level: 2 to 5 µg/mL
[3]; human
  Peak fidaxomicin concentration: ~100 mg/L
C. difficile
  MIC: 0.25 µg/mL (≈ 0.236 µM)
CDI [4]
  Recurrence: below 5%
[5]; [12]
  CD TVC reduced to the limit of detection (LOD) by day: ≤ 5 days
  CYT (toxin titre) reduced to the limit of detection (LOD) by day: ≤ 7 days
[5]; Model B: 200 mg/L bd 5 d, still detectable on day 5 of treatment
  Reduction of CD TVCs: ~4 log10 cfu/mL
[5]; Model B: 5 d, 5 d rest, further 5 d pulse
  TVC and SP after second 5 days fidaxomicin pulse: decreased TVC and SP to LOD
Bifidobacteria [6]
  Decrease of bifidobacteria to below LOD: 6-8 log10 cfu/mL
  Recovery of bifidobacteria: did not recover
[7]
  Persistence of fidaxomicin: 20 mg/L
Clostridium species
  MIC values compared with optically pure S-isomer of tiacumicin B and other tiacumicin related compounds: lower MIC values
[8]
  BCS (Biopharmaceutics Classification System) class: Class IV
[9]
  Absorption from the intestinal tract: poorly absorbed
CDI [10]
  Initial clinical cure of CDI versus vancomycin: non-inferiority
  Reduction of recurrence and sustained clinical response versus vancomycin: superiority
[11]; 18 courses of fidaxomicin in 14 patients (FID-TX, FID-CH, FID-TP)
  Courses resulting in treatment success: 18 courses
[11]; FID-CH: 10-day fidaxomicin chaser, 8 courses, excluding RCDI due to antimicrobial exposure
  RCDI: 25%
[11]; FID-CH
  Average symptom-free interval (SFI): 240 days
[11]; FID-TP: taper 200 mg daily 7 days then 200 mg QOD 7-26 days, 7 courses
  RCDI: no RCDI
[11]; FID-TP
  Average symptom-free interval (SFI): 150 days
[11]; FID-TX: 200 mg BID for 10 days, 3 courses
  RCDI episodes: 66%
[11]; FID-TX
  Average symptom-free interval (SFI): 73 days

## CN[C@H](CC(C)C)C(=O)N[C@H]1C(=O)N[C@@H](CC(N)=O)C(=O)N[C@H]2C(=O)N[C@H]3C(=O)N[C@H](C(=O)N[C@H](C(=O)O)c4cc(O)cc(O)c4-c4cc3ccc4O)[C@H](O)c3ccc(c(Cl)c3)Oc3cc2cc(c3O[C@@H]2O[C@H](CO)[C@@H](O)[C@H](O)[C@H]2O[C@H]2C[C@](C)(N)[C@H](O)[C@H](C)O2)Oc2ccc(cc2Cl)[C@H]1O [vancomycin]
[11]; following a vancomycin taper
  Average symptom-free interval (SFI): 37 days

Reference: US10137141B2, “Treatment regimen tiacumicin compound” (priority 2014, dated 2018)
